The subject of this experiment is Human embryonic fibroblasts. Description: Cell proliferation test with extracts of Elastollan films (Giemsa stain, optical density 620 nm). Format: cell-based. The settings on record: extracts obtained in Eagle's medium 37° C. 3 h; cells incubated 72 h; mitomycin C 20 μg/ml for 2 h. As for the experimental part: Elastollan films containing 0.1 and 0.5% by weight shikonin, and Elastollan films without shikonin, were tested.
Human embryonic fibroblasts were employed in these experiments. The cells were cultivated in Eagle's medium with the addition of 10% fetal calf serum and passaged twice a week using a trypsin-EDTA solution. The cells present after the 14th passage were used for the tests.
Mitomycin C dissolved in culture medium in a concentration of 20 μg/ml was used as […] control.
Extracts from Elastollan films without shikonin, Elastollan films with 0.1% by weight and 0.5% by weight shikonin (based on polyurethane), and shikonin alone, were tested.
Extracts were obtained by incubating dishes covered by the polymers to be tested (i.e. Elastollan films without or with shikonin) with Eagle's medium at 37° C. for 3 h. Undissolved solids were removed by filtering. The control with shikonin only (in the culture medium) was cultivated under the same conditions. […]
The stain retained by the cells was eluted with a phosphate buffer/alcohol mixture (1:1) at room temperature for 15 min. The optical density of the resulting solutions was determined by a spectrophotometer with a wavelength of 620 nm.

Turning to `CO[C@@]12[C@H](COC(N)=O)C3=C(C(=O)C(C)=C(N)C3=O)N1C[C@@H]1N[C@@H]12` [mitomycin C, Mitomycin C], the “cell growth of fibroblasts after exposure to the tested extract” value was “no cell growth was observed”.

The values are drawn from patent US20050208101A1, “Coating composition for an implantable medical device and method for coating such a device” (priority 2002, published 2005).
